Assay results: patent publication US12371454B2, “Cyclic peptide compound having Kras inhibitory action” (priority 2019, dated 2025)
pIC50: −log10 of the molar value. Positions of bridges follow the written chain, without caps; N, C: chain ends. Non-standard residues stand in square brackets, D forms with d. Residues, ends and D or L forms follow the SMILES beside them. *: point of attachment. hPhe(3-Cl-4-CF3) = N[C@@H](CCc1ccc(C(F)(F)F)c(Cl)c1)C(=O)O; NMePhe(4-Me) = CN[C@@H](Cc1ccc(C)cc1)C(=O)O; Abu(4,4,4-F3) = N[C@@H](CC(F)(F)F)C(=O)O; NMeGly(cPent) = CN[C@H](C(=O)O)C1CCCC1; NMeCha = CN[C@@H](CC1CCCCC1)C(=O)O; NMeChg = CN[C@H](C(=O)O)C1CCCCC1; NMeD = CN[C@@H](CC(=O)O)C(=O)O; NMeL = CN[C@@H](CC(C)C)C(=O)O; NMeV = CN[C@H](C(=O)O)C(C)C; NMeAbu = CC[C@H](NC)C(=O)O; NMeA = CN[C@@H](C)C(=O)O; Piperidide = C1CCN(*)CC1; Pyrrolidide = C1CCN(*)C1; Ac5c = NC1(C(=O)O)CCCC1; Aze = O=C(O)[C@@H]1CCN1; Aib = CC(C)(N)C(=O)O; Cyclopropyl = C1CC1*; Sar = CNCC(=O)O

Columns and labels:
[1] = molecular target: T1, Kras and SOS1 (biotin-tagged human Kras loaded with GDP, His-tagged human SOS1) (Homo sapiens, UniProt P01116, G12D); experiment: Protein-protein interaction inhibition between Kras and SOS1 (KrasGl2D-SOS PPI) using AlphaScreen; format: binding; settings: AlphaScreen; biotin-tagged human Kras loaded with GDP, His-tagged human SOS1; read-out: KRAS G12D-SOS PPI IC50
T1 construct: made in house; host or cells: E. coli (stated for Kras only)
Summary of the method: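 Binding between SOS1 and Kras is detected as bead-proximity luminescence: illuminate Ni-conjugated donors (680 nm), collect 520-620 nm emission from streptavidin-conjugated acceptors; Kras carries biotin and GDP loaded after purification, SOS1 carries a His tag.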

[2] = test system: Human pancreatic cancer cell line AsPC-1; experiment: Measurement of AsPC-1 cell growth inhibition (AsPC-1 CGI); format: cell-based; settings: 96 h
Summary of the method: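 AsPC-1 cells in 15% FBS RPMI-1640 were exposed to test compound for 96 hours at 37° C, with CellTiter-Glo as endpoint.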

T1 sequence (P01116 1-188 isoform P01116-2 G12D): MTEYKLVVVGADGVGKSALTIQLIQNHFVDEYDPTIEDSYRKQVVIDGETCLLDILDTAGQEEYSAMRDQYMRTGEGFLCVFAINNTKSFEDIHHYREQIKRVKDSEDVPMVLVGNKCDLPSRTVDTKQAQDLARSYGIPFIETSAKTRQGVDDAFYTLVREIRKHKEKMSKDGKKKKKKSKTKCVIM

Row | SMILES | pIC50 [1] | pIC50 [2]
1 | CC(C)C[C@H]1C(=O)N[C@@H](CC(F)(F)F)C(=O)N(C)CC(=O)N(C)CC(=O)N(C)[C@@H](CC2CCCCC2)C(=O)N(C)CC(=O)N[C@@H](CCc2ccc(C(F)(F)F)c(Cl)c2)C(=O)N2CCC[C@H]2C(=O)NC2(CCCC2)C(=O)N(C)[C@@H](C2CCCCC2)C(=O)N(C)[C@H](C(=O)N2CCCCC2)CC(=O)N1C [Compound 1744] ([NMeL][Abu(4,4,4-F3)][Sar][Sar][NMeCha][Sar][hPhe(3-Cl-4-CF3)]P[Ac5c][NMeChg][NMeD]-Piperidide; lactam N-11) | 8.40 | 6.30 to 7.00
2 | CC[C@H](C)[C@@H]1NC(=O)[C@H](CC(C)C)N(C)C(=O)C[C@@H](C(=O)N2CCCC2)N(C)C(=O)[C@H](C(C)C)N(C)C(=O)C2(CCCC2)NC(=O)[C@@H]2CCCN2C(=O)[C@H](CCc2ccc(C(F)(F)F)c(Cl)c2)NC(=O)CN(C)C(=O)[C@H](Cc2ccc(C)cc2)N(C)C(=O)CN(C)C(=O)CN(C)C1=O [Compound 1749] ([NMeL]I[Sar][Sar][NMePhe(4-Me)][Sar][hPhe(3-Cl-4-CF3)]P[Ac5c][NMeV][NMeD]-Pyrrolidide; lactam N-11) | 9.13 | 6.30 to 7.00
3 | CC[C@H](C)[C@@H]1NC(=O)[C@H](CC(C)C)N(C)C(=O)C[C@@H](C(=O)N2CCCCC2)N(C)C(=O)[C@H](C(C)C)N(C)C(=O)C(C)(C)NC(=O)[C@@H]2CCCN2C(=O)[C@H](CCc2ccc(C(F)(F)F)c(Cl)c2)NC(=O)CN(C)C(=O)[C@H](CC2CCCCC2)N(C)C(=O)[C@@H]2CCN2C(=O)[C@H](C)N(C)C1=O [Compound 1751] ([NMeL]I[NMeA][Aze][NMeCha][Sar][hPhe(3-Cl-4-CF3)]P[Aib][NMeV][NMeD]-Piperidide; lactam N-11) | 8.14 | 6.30 to 7.00
4 | CC[C@H](C)[C@@H]1NC(=O)[C@H](CC(C)C)N(C)C(=O)C[C@@H](C(=O)N2CCCC2)N(C)C(=O)[C@H](C2CCCCC2)N(C)C(=O)C2(CCCC2)NC(=O)[C@@H]2CCCN2C(=O)[C@H](CCc2ccc(C(F)(F)F)c(Cl)c2)NC(=O)CN(C)C(=O)[C@H](CC2CCCCC2)N(C)C(=O)CN(C)C(=O)CN(C)C1=O [Compound 1757] ([NMeL]I[Sar][Sar][NMeCha][Sar][hPhe(3-Cl-4-CF3)]P[Ac5c][NMeChg][NMeD]-Pyrrolidide; lactam N-11) | 9.37 | 7.30 to 7.70
5 | CC[C@H](C)[C@@H]1NC(=O)[C@H](CC(C)C)N(C)C(=O)C[C@@H](C(=O)N2CCCC2)N(C)C(=O)[C@H](C2CCCC2)N(C)C(=O)C2(CCCC2)NC(=O)[C@@H]2CCCN2C(=O)[C@H](CCc2ccc(C(F)(F)F)c(Cl)c2)NC(=O)CN(C)C(=O)[C@H](Cc2ccc(C)cc2)N(C)C(=O)CN(C)C(=O)CN(C)C1=O [Compound 1761] ([NMeL]I[Sar][Sar][NMePhe(4-Me)][Sar][hPhe(3-Cl-4-CF3)]P[Ac5c][NMeGly(cPent)][NMeD]-Pyrrolidide; lactam N-11) | 9.39 | 7.30 to 7.70
6 | CC[C@H](C)[C@@H]1NC(=O)[C@H](CC(C)C)N(C)C(=O)C[C@@H](C(=O)N(C)C)N(C)C(=O)[C@H](C2CCCCC2)N(C)C(=O)C2(CCCC2)NC(=O)[C@@H]2CCCN2C(=O)[C@H](CCc2ccc(C(F)(F)F)c(Cl)c2)NC(=O)CN(C)C(=O)[C@H](Cc2ccc(C)cc2)N(C)C(=O)CN(C)C(=O)CN(C)C1=O [Compound 1762] ([NMeL]I[Sar][Sar][NMePhe(4-Me)][Sar][hPhe(3-Cl-4-CF3)]P[Ac5c][NMeChg][NMeD]-NMe2; lactam N-11) | 9.43 | 7.30 to 7.70
7 | CC(C)C[C@H]1C(=O)N[C@@H](COC2CC2)C(=O)N(C)CC(=O)N(C)CC(=O)N(C)[C@@H](CC2CCCCC2)C(=O)N(C)CC(=O)N[C@@H](CCc2ccc(C(F)(F)F)c(Cl)c2)C(=O)N2CCC[C@H]2C(=O)NC2(CCCC2)C(=O)N(C)[C@@H](C2CCCCC2)C(=O)N(C)[C@H](C(=O)N2CCCCC2)CC(=O)N1C [Compound 1766] ([NMeL]S(Cyclopropyl)[Sar][Sar][NMeCha][Sar][hPhe(3-Cl-4-CF3)]P[Ac5c][NMeChg][NMeD]-Piperidide; lactam N-11) | 8.44 | 6.30 to 7.00
8 | CC[C@H](C)[C@@H]1NC(=O)[C@H](CC)N(C)C(=O)C[C@@H](C(=O)N2CCCCC2)N(C)C(=O)[C@H](C2CCCCC2)N(C)C(=O)C2(CCCC2)NC(=O)[C@@H]2CCCN2C(=O)[C@H](CCc2ccc(C(F)(F)F)c(Cl)c2)NC(=O)CN(C)C(=O)[C@H](CC2CCCCC2)N(C)C(=O)CN(C)C(=O)CN(C)C1=O [Compound 1770] ([NMeAbu]I[Sar][Sar][NMeCha][Sar][hPhe(3-Cl-4-CF3)]P[Ac5c][NMeChg][NMeD]-Piperidide; lactam N-11) | 9.15 | 7.00 to 7.30
